Entries after “also recorded” stand apart in the source; their conditions may differ.
Experiments:
BTK:NLuc fusion [1] = molecular target: T1, BTK:NLuc fusion (Homo sapiens, UniProt Q06187); assay: Capture efficiency of BTK:NLuc fusion onto HALOTAG coated magnetic beads; format: binding; conditions: cell lysate, 1 μM conjugate, 2 hour
T1 construct: expressed in transfected cells
Protocol: To interrogate capture efficiency of an interacting cellular target, a known target of Ibrutinib, BTK, was genetically fused to NANOLUC (NLuc) luciferase reporter (Promega Corporation). Since Ibrutinib is a covalent inhibitor of BKT, a TEV recognition site was incorporated between BTK and NLuc to allow proteolytic release of NLuc from the beads. Following a 2 hour treatment of cell lysate (from cells expressing the BTK:NLuc fusion) with 1 μM Ibrutinib chloroalkane conjugates (final concentration), the Ibrutinib chloroalkane conjugates, and their interacting BTK:NLuc target, were captured onto HALOTAG coated magnetic beads (Promega Corporation). Capture efficiency was determined as the percent of lost in bioluminescence in the unbound fractions relative to the untreated cell lysate.

HALOTAG protein [2] = conditions: 1 μM conjugate, up to 60 min, lysate of cells expressing HALOTAG fusion
Protocol: The 4 BIRB* conjugates were compared for binding kinetics to a HALOTAG protein in a cell lysate or inside live cells. Binding kinetics to HALOTAG in lysate was measured by adding the BIRB*-chloroalkane conjugates to a lysate prepared from cells expressing a HALOTAG fusion protein at a final concentration of 1 μM. After 0-60 minutes incubation, a fraction of each reaction taken at different time points (each containing a different BIRB* conjugate) was removed, HALGOTAG TMR-fluorescent ligand (Promega Corporation) was added to a final concentration of 1 μM and allowed to bind to the HALOTAG protein (which remained unbound). The time point fractions were resolved on SDS-PAGE and scanned on a Typhoon 9400 fluorescent imager (GE Healthcare). Bands were quantitated using IMAGEQUANT (GE Healthcare), and binding kinetics were determined as the percent binding with time relative to time zero when no chloroalkylated compound was added.
Binding kinetics to HALOTAG in lysate (FIG. 23A) was measured by treating a lysate prepared from cells, expressing a HALOTAG fusion protein, with the Ibrutinib chloroalkane conjugates at a final concentration of 1 μM for up 60 minutes. After a specified incubation time, an aliquot was removed and treated with HALOTAG TMR-fluorescent ligand (Promega Corporation) at a final concentration of 1 μM to label the remaining unbound HALOTAG fusion protein. The aliquots were resolved on SDS-PAGE and scanned on a Typhoon 9400 fluorescent imager (GE Healthcare). Bands were quantitated using IMAGEQUANT (GE Healthcare), and binding kinetics was determined as the percent binding over time relative to time zero when no chloroalkane-tagged compound added.
Binding kinetics to HALOTAG in lysate (FIG. 31A) were measured by treating a lysate prepared from cells expressing a HALOTAG fusion protein with the BIRB796 chloroalkane conjugates at a final concentration of 1 μM for up to 60 minutes. After a specified incubation time, an aliquot was removed and treated with HALOTAG TMR-fluorescent ligand (Promega Corporation) at a final concentration of 1 μM to label the remaining unbound HALOTAG fusion protein. The aliquots were resolved on SDS-PAGE and scanned on a Typhoon 9400 fluorescent imager (GE Healthcare). Bands were quantitated using IMAGEQUANT (GE Healthcare), and binding kinetics was determined as the percent binding over time relative to time zero where no chloroalkane-tagged compound was added.
BTK:NLuc fusion [3] = molecular target: T1, BTK:NLuc fusion; assay: Release of captured BTK:NLuc from HALOTAG beads by TEV or palladium-catalyzed cleavage, western; conditions: anti-NLuc antibody
Protocol: To interrogate the efficiency of palladium-catalyzed cleavage of these linkers, the release of BTK:NLuc fusion covalently captured onto the HALOTAG beads was determined by two methods: i) TEV proteolytic cleavage and ii) palladium-catalyzed cleavage (FIG.
24B). TEV proteolytic cleavage of the fusion would lead to the release of NLuc while palladium catalyzed cleavage of the allyl carbamate group within the chloroalkane linker would result with the release of BTK:NLuc.

[4] = test system: TNFα secretion in LPS stimulated THP-1 cells; assay: Inhibition of TNFα secretion in LPS stimulated THP-1 cells (ELISA); format: cell-based, human; conditions: 2 h compound, LPS 250 ng/ml 24 h
Protocol: Bioactivity was measured through inhibition of TNFα secretion in LPS stimulated THP-1 cells (FIGS. 8A-8C). THP-1 cells were plated into wells of 96-well plates at 100,000 cells/well, treated with serial dilutions of BIRB796 conjugates for 2 hours, and then stimulated for 24 hours with LPS (Sigma) at final concentration of 250 ng/ml. The supernatant was analyzed for human TNFα secretion by ELISA (R&D Systems). […] Thus, it imposes minimal impact on the chloroalkane features.
Inhibition of mitogen-activated protein kinases (MAPK) by BIRB796 reduces production of proinflammatory cytokines such as TNFα. Influence of the linkers on BIRB796 potency was tested by comparing the BIRB796 conjugates for inhibition of TNFα secretion from LPS-stimulated THP-1 cells (FIG. 32). THP-1 cells were plated in 96-well plates at 100,000 cells/well, treated with serial dilutions of BIRB796 (Cayman Chemical) and BIRB796-chloroalkane conjugates for 2 h, and then stimulated with LPS (Sigma) at final concentration of 250 ng mL−1 for 24 h. Supernatants were analyzed for human TNFα secretion by ELISA (R&D systems). Results indicates inverse correlation between the length of the cleavable chloroalkane linker and its influence on BIRB796 potency.

purified ABL1 = purified ABL1 (Homo sapiens, UniProt P00519); assay: Inhibition of purified ABL1 by ponatinib conjugates; format: biochemical
Sequence of purified ABL1 (P00519 whole entry, species assumed): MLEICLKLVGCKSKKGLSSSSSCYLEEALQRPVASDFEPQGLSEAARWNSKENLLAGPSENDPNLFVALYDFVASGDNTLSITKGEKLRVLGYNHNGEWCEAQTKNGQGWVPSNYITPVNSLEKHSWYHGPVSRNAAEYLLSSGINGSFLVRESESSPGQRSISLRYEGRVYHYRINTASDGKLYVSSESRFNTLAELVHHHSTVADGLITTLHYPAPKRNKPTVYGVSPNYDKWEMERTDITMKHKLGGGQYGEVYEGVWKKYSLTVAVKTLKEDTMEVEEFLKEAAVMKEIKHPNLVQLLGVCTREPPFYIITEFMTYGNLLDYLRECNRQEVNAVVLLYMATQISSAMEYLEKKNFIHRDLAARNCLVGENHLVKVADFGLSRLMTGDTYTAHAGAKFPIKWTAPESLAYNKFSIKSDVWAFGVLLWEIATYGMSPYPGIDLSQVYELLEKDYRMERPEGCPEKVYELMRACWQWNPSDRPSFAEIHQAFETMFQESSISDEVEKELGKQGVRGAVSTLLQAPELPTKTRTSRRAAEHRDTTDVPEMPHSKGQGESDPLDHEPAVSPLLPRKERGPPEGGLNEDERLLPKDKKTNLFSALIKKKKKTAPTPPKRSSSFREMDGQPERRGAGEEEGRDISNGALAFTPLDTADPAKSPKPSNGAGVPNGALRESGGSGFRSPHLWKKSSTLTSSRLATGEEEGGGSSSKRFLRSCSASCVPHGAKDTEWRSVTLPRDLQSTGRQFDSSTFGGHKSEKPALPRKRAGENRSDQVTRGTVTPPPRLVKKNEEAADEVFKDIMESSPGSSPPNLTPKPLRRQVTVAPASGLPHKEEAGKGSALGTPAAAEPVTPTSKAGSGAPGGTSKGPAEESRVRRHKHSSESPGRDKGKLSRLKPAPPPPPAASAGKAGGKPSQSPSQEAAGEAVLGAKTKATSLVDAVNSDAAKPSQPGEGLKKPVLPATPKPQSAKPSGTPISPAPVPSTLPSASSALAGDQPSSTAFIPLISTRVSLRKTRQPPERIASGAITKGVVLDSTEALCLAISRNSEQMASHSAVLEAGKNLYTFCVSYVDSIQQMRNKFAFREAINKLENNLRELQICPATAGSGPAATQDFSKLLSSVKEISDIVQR
Description: (§1) Two additional linkers were generated, one where the three other carbamates were replaced with amides, and the other where the two allyl carbamate groups were replaced with allyl ether linkages. […] The linkers were compared for their influence on binding to HALOTAG and ABL1 in biochemical and cellular assays.

[5] = test system: STATS reporter expression; assay: In-cell inhibition of STATS reporter expression by ponatinib conjugates; format: cell-based; conditions: cellular assay
Description: as §1, with “CA-T4E contains 4 carbamate groups, one of them essential for rapid binding kinetics to HALOTAG. Two” for “Two”

HALOTAG protein [6] = conditions: 10 μM conjugate, up to 90-120 min, live cells expressing HALOTAG
Protocol: Binding kinetics to HALOTAG inside cells was measured by treating live cells expressing a HALOTAG protein with the BIRB* chloroalkane conjugates at a final concentration of 10 μM. After 0-120 minutes incubation time points, the medium was replaced with medium containing 5 μM HALOTAG TMR-fluorescent ligand, and the cells were incubated for additional 15 minutes allowing the TMR-fluorescent ligand to bind to the HALOTAG protein (which remained unbound). After the media was removed, the cells were lysed with a detergent lysis buffer, and the time points were analyzed as described above.
Both conjugates were compared for binding kinetics to HALOTAG inside live cells and for bioactivity. Binding kinetics to HALOTAG inside cells was measured by treating live cells expressing a HALOTAG protein with the BIRB796 chloroalkane conjugates at a final concentration of 10 μM. […] Bands were quantitated, and the binding kinetics were determined as the percent binding with time relative to time zero when no chloroalkylated compound was added.
Binding kinetics to HALOTAG inside cells (FIG. 23B) was measured by treating live cells, expressing a HALOTAG fusion protein, with the Ibrutinib chloroalkane conjugates at a final concentration of 10 μM for up to 90 minutes. […] Cells were then lysed with a detergent lysis buffer, and the samples at the various time points were analyzed as described above. […]

T1 sequence (Q06187 whole entry, species assumed, the tested form may be a part): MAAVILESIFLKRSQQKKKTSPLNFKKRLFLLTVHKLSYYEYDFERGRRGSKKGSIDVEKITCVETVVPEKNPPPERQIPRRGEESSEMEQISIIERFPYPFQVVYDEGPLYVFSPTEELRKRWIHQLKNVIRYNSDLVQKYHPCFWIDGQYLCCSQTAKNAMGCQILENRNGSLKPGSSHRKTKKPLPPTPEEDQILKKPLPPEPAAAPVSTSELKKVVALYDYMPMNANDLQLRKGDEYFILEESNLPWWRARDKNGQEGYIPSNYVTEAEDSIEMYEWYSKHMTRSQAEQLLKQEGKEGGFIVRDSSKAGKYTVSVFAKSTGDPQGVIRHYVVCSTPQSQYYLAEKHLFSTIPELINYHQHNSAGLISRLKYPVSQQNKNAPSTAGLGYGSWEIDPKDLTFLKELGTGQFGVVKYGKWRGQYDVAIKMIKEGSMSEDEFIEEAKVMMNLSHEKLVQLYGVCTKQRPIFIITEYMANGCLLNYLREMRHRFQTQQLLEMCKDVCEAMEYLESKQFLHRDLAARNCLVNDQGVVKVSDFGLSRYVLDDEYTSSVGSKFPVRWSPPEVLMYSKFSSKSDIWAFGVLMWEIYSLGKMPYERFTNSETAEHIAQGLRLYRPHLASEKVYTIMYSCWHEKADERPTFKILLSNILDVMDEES

Structure (SMILES)	capture efficiency of BTK:NLuc (BTK:NLuc fusion [1])	binding kinetics to HALOTAG in lysate (HALOTAG protein [2])	also measured
Nc1ncnc2c1c(-c1ccc(Oc3ccccc3)cc1)nn2[C@@H]1CCCN(C(=O)/C=C/CNC(=O)OC/C=C/COCCOC(=O)NCCOCCOCCCCCCCl)C1 [PBI-6027]	reduced capture efficiency relative to PBI-6040	–	–
Nc1ncnc2c1c(-c1ccc(Oc3ccccc3)cc1)nn2[C@@H]1CCCN(C(=O)/C=C/CNC(=O)OC/C=C\COC(=O)NCCOCCOCCOC(=O)NCCOCCOCCCCCCCl)C1 [PBI-6030]	did not interfere with capture efficiency	–	–
CC(C)(C)c1cc(NC(=O)Nc2ccc(OCCN3CCOCC3)c3ccccc23)n(-c2cccc(CNC(=O)OC/C=C/COCCOC(=O)NCCOCCOCCCCCCCl)c2)n1 [CA-T2E]	–	faster binding to HALOTAG than respective linkers with a cis-double bond	–
Nc1ncnc2c1c(-c1ccc(Oc3ccccc3)cc1)nn2[C@@H]1CCCN(C(=O)/C=C/CNC(=O)OC/C=C\COCCOC(=O)NCCOCCOCCCCCCCl)C1 [PBI-6025]	reduced capture efficiency relative to PBI-6040	–	–
Nc1ncnc2c1c(-c1ccc(Oc3ccccc3)cc1)nn2[C@@H]1CCCN(C(=O)/C=C/CNC(=O)OC/C=C\COC(=O)NCCOCCOCCCCCCCl)C1 [PBI-6041]	reduced capture efficiency relative to PBI-6040	lower binding kinetics to HALOTAG	release of NLuc by TEV proteolytic cleavage (BTK:NLuc fusion [3]): lower release
Nc1ncnc2c1c(-c1ccc(Oc3ccccc3)cc1)nn2[C@@H]1CCCN(C(=O)/C=C/CNC(=O)OC/C=C/COC(=O)NCCOCCOCCOC(=O)NCCOCCOCCCCCCCl)C1 [PBI-6029]	did not interfere with capture efficiency	–	–
CC(C)(C)c1cc(NC(=O)Nc2ccc(OCCN3CCOCC3)c3ccccc23)n(-c2cccc(CNC(=O)OCCOCCOCCNC(=O)OC/C=C\COC(=O)NCCOCCOCCOC(=O)NCCOCCOCCCCCCCl)c2)n1 [CA-T4Z]	–	–	inhibition of TNFα secretion (potency) [4]: potency similar to non-cleavable linker CA-T1
CC(C)(C)c1cc(NC(=O)Nc2ccc(OCCN3CCOCC3)c3ccccc23)n(-c2cccc(CNC(=O)OCCOCCOCCNC(=O)OC/C=C/COC(=O)NCCOCCOCCOC(=O)NCCOCCOCCCCCCCl)c2)n1 [BIRB796-CA-T4E]	–	faster binding to HALOTAG than respective linkers with a cis-double bond; also recorded: most similar to the non-cleavable linker CA-T1	inhibition of TNFα secretion (potency) [4]: potency similar to non-cleavable linker CA-T1
Cc1ccc(C(=O)Nc2ccc(CN3CCN(CCCNC(=O)CCOCCOCCC(=O)NC/C=C/CNC(=O)CCOCCOCCOC(=O)NCCOCCOCCCCCCCl)CC3)c(C(F)(F)F)c2)cc1C#Cc1cnc2cccnn12 [ponatinib-tri-amide]	–	–	inhibition of purified ABL1 (purified ABL1): comparable inhibition of purified ABL1; decrease of ponatinib potency relative to CA-T4E and all PEG linkers [5]: 20 fold; binding kinetics to HALOTAG inside live cells (cellular permeability) (HALOTAG protein [6]): reduced binding kinetics to intracellular HALOTAG
CC(C)(C)c1cc(NC(=O)Nc2ccc(OCCN3CCOCC3)c3ccccc23)n(-c2cccc(CNC(=O)OC/C=C\COC(=O)NCCOCCOCCCCCCCl)c2)n1 [CA-T0]	–	lower binding kinetics to HALOTAG	–
CC(C)(C)c1cc(NC(=O)Nc2ccc(OCCN3CCOCC3)c3ccccc23)n(-c2cccc(CNC(=O)OC/C=C/COC(=O)NCCOCCOCCOC(=O)NCCOCCOCCCCCCCl)c2)n1 [CA-T3E]	–	faster binding to HALOTAG than respective linkers with a cis-double bond	–

— patent publication US10618907B2, “Cell-permeable, cell-compatible, and cleavable linkers for covalent tethering of functional elements” (Promega Corporation, priority 2015, dated 2020)
